Laboratory results as given in article PMC5705954, “Investigation of Non-Covalent Interactions of Aflatoxins (B1, B2, G1, G2, and M1) with Serum Albumin” (Toxins, 2017).
Like-named read-outs stand apart in the source and are kept apart here.

Columns and labels:
[1] = molecular target: T1, human serum albumin (HSA) (Homo sapiens, UniProt P02768); conditions: cited from earlier work
[2] = molecular target: warfarin-HSA interaction (Sudlow's Site I) (Homo sapiens, UniProt P02768); format: binding
[3] = molecular target: T1, human serum albumin (HSA); experiment: Fluorescence quenching of HSA by aflatoxins; format: binding; set-up: purchased Sigma-Aldrich; conditions: pH 7.4
Method: In order to characterize aflatoxin-HSA interactions, fluorescence quenching studies were performed. Increasing aflatoxin concentrations (0–10 μM) were added to a standard amount of HSA (2 μM) then fluorescence emission spectra of HSA were recorded (λexc = 280 nm). […] To exclude the possible involvement of the inner filter effect, fluorescence emission intensities were corrected based on the absorbance of aflatoxins (Equation (1)). […].
Fluorescence measurements were performed employing Hitachi F-4500 fluorescence spectrophotometer. UV-Vis spectra were recorded applying Specord Plus 210 (Analytic Jena AG, Jena, Germany) spectrophotometer. All measurements were carried out at 25 °C.
During fluorescence quenching experiments, emission intensities of albumin were determined in the presence of 2 μM albumin with and without aflatoxins (0–10 μM) using 280 and 334 nm as excitation and emission wavelengths, respectively. Inner filter effects of aflatoxins were eliminated applying the following equation [33]:(1) Icor=Iobs×e^(Aexc+Aem)/2 where Icor and Iobs are the corrected and observed fluorescence emission intensities, respectively; while Aexc and Aem are the absorption of aflatoxins at 280 and 334 nm, respectively.
Complex formations of aflatoxins with albumins were investigated applying the Stern-Volmer equation:(2) I0/I=1+KSV×[Q] where I and I0 denote the fluorescence intensities of albumin with and without aflatoxins, respectively. KSV (with the unit of dm^3/mol) is the Stern-Volmer quenching constant and [Q] is the molar concentration of aflatoxins.
Association constants (Ka) and number of binding sites (n) were determined by linear fitting, employing the double logarithmic Stern-Volmer equation [33]:(3) log(I0−I)/I=logKa+n×log[Q] where I and I0 denote the fluorescence intensities of albumin with and without aflatoxins, respectively; while [Q] is the molar concentration of aflatoxins.
Thereafter, binding constants of aflatoxin-albumin complexes were quantified by Hyperquad2006 program package, assuming 1:1 stoichiometry, (4) I=I0+(IHG−I0)/2⋅[H]0⋅([H]0+[G]0+1/K−([H]0+[G]0+1/K)^2−4⋅[H]0⋅[G]0) where, I0 and I denote the emission intensities of albumin at 334 nm in the absence and presence of aflatoxins, respectively; IHG is the emission intensity of pure aflatoxin-albumin complex at 334 nm (calculated by the Hyperquad2006); K denotes the binding constant (with the unit of dm^3/mol); [H]0 and [G]0 are the total concentrations of albumin and aflatoxin, respectively.

[4] = molecular target: T1, human serum albumin (HSA); set-up: purchased Sigma-Aldrich; conditions: cited from earlier work
[5] = molecular target: T1, human serum albumin (HSA); experiment: Thermodynamic studies (van't Hoff) of complex formation with HSA; format: binding; set-up: purchased Sigma-Aldrich
Method: In order to investigate the temperature dependence of AFB1-HSA interaction, binding constants were determined between 25 and 40 °C. […] Using the temperature-dependence of the stability constants, the thermodynamic parameters associated to the interaction of AFB1 with HSA was also determined using the van’t Hoff equation (Equation (5)). […]. This value is within the typical range of non-covalent interactions. ΔH and ΔS values of the AFB1-HSA complex formation were −10.48 kJ mol^−1 and 55.1 JK^−1 mol^−1, respectively. Comparing these values with the parameters obtained for previously examined mycotoxin-albumin complexes, namely citrinin-HSA and zearalenone-HSA (Table 1), we can conclude that the smaller enthalpy change is associated with higher entropy gain in agreement with the enthalpy-entropy compensation. […]
Fluorolog τ3 spectrofluorometric system (Jobin-Yvon/SPEX) was applied during thermodynamic studies using 280 nm excitation wavelength. […] The binding constants were determined by the Hyperquad2006 program package (Equation (4)). The enthalpy and entropy changes of complex formation between AFB1 and HSA molecules were calculated as follows: the logarithms of binding constants (logK) at different temperatures were plotted against the reciprocal temperature according to the van’t Hoff equation. […]

[6] = molecular target: bovine serum albumin (BSA) (Bos taurus, UniProt P02769); format: binding; conditions: pH 7.4
[7] = molecular target: porcine serum albumin (PSA) (Sus scrofa, UniProt P08835); format: binding; conditions: pH 7.4
rat serum albumin (RSA) = rat serum albumin (RSA) (Rattus norvegicus, UniProt P02770); format: binding; conditions: pH 7.4
[8] = previously reported data ref 16
[9] = previously reported data ref 20

porcine serum albumin (PSA), sequence (P08835 25-607 limits assumed): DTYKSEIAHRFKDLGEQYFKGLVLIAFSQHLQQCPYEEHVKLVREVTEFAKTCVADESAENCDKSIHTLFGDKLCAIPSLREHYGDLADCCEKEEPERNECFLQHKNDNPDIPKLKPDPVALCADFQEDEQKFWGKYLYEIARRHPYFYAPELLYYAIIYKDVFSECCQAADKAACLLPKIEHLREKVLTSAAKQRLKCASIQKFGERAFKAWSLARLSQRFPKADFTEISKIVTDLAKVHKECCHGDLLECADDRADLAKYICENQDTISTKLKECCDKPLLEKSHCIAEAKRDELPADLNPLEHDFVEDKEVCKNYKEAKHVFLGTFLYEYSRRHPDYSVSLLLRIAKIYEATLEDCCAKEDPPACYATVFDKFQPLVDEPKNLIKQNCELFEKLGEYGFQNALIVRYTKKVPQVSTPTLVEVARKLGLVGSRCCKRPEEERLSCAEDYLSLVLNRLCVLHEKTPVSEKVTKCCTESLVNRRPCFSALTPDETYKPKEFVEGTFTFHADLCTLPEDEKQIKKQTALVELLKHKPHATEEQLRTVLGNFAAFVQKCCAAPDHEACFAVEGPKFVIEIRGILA
rat serum albumin (RSA), sequence (P02770 25-608 limits assumed): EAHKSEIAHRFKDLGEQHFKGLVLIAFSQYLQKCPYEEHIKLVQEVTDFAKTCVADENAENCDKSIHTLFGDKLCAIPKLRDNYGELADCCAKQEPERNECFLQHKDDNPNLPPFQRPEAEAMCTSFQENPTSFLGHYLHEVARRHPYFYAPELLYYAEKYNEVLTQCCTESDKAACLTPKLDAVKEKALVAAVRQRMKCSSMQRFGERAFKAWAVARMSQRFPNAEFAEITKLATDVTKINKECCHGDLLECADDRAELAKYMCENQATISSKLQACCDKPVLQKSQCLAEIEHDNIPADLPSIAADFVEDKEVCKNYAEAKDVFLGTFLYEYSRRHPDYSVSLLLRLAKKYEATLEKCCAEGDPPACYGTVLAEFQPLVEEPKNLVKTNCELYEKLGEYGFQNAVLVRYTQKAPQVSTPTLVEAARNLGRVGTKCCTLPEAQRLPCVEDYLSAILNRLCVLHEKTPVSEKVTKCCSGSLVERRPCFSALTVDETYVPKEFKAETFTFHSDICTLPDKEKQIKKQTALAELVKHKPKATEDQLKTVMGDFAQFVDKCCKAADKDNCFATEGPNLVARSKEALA
bovine serum albumin (BSA), sequence (P02769 25-607 limits assumed): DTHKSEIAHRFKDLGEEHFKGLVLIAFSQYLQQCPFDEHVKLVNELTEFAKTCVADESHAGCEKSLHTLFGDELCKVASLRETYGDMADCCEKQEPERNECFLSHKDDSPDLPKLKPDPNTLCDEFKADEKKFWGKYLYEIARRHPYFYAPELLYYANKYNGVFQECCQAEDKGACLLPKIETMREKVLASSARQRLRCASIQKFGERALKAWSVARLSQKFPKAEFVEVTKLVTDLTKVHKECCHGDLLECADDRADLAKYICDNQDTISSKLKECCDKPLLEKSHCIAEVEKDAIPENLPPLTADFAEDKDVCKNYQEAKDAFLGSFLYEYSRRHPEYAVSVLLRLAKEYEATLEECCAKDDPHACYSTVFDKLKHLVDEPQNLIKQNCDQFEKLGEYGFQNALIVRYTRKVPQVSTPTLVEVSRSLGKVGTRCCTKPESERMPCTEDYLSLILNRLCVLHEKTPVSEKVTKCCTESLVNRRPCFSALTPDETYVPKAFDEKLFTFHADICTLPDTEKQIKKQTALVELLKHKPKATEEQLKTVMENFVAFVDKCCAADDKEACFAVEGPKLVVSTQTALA
warfarin-HSA interaction (Sudlow's Site I), sequence (P02768 25-609 limits assumed): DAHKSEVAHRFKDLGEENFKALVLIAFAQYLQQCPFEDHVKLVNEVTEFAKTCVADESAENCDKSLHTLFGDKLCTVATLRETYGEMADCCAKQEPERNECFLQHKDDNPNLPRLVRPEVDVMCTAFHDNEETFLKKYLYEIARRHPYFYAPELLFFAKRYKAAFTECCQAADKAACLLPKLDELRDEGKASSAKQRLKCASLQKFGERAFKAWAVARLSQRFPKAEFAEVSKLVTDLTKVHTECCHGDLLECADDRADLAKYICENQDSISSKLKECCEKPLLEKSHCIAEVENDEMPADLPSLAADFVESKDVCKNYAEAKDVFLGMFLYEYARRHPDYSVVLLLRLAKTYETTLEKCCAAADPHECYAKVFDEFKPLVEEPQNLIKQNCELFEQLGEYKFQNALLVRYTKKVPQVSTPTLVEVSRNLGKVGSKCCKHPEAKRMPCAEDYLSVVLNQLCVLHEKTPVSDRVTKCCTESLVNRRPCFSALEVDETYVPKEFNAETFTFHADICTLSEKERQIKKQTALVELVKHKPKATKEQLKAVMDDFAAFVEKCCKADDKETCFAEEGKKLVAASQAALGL
T1 sequence (P02768 25-609): as the sequence (P02768 25-609 limits assumed) above

## CN(C)c1ccc(N=Nc2ccc(S(=O)(=O)[O-])cc2)cc1.[Na+] [MO, methyl orange]
[1]
  logK of MO-HSA complex: ~ 5

## COc1cc2c(c3oc(=O)c4c(c13)CCC4=O)[C@@H]1CCO[C@@H]1O2 [AFB2, aflatoxin B2]
[2]
  effect on fluorescence signal of HSA-bound warfarin at 379 nm (displacement of WAR from HSA): considerably decreased the fluorescence intensity of WAR at 379 nm
[3]
  logK (binding constant): 4.55 ± 0.01
  logKSV (Stern-Volmer quenching constant): 4.21 ± 0.02
  logKa (association constant): 4.40 ± 0.08
  n (number of binding sites): 1.054 ± 0.000

## CC1=C2C(=CO[C@H](C)[C@H]2C)C(O)=C(C(=O)O)C1=O [citrinin]
[4]; [8]
  ΔG (298.16 K) of complex formation with HSA: -7.161 kcal/mol
  ΔH of complex formation with HSA: -5.772 kcal/mol
  ΔS of complex formation with HSA: 20.90 JK^−1 mol^−1

## COc1cc2c(c3oc(=O)c4c(c13)CCOC4=O)C1C=COC1O2 (stereo not shown) [AFG1, aflatoxin G1]
[2]
  effect on fluorescence signal of HSA-bound warfarin at 379 nm (displacement of WAR from HSA): Very similar spectroscopic changes
[3]
  logK (binding constant): 4.58 ± 0.01
  logKSV (Stern-Volmer quenching constant): 4.33 ± 0.04
  logKa (association constant): 4.43 ± 0.03
  n (number of binding sites): 1.020 ± 0.019

## COc1cc2c(c3oc(=O)c4c(c13)CCC4=O)[C@H]1C=CO[C@H]1O2 [AFB1, aflatoxin B1]
[2]
  effect on fluorescence signal of HSA-bound warfarin at 379 nm (displacement of WAR from HSA): significant decrease of the fluorescence signal at 379 nm
[5]
  ΔG (298.16 K) of complex formation with HSA: -6.429 kcal/mol
  ΔH of complex formation with HSA: -2.505 kcal/mol
[6]
  logK (binding constant): 4.63 ± 0.01
  logKSV (Stern-Volmer quenching constant): 4.41 ± 0.06
  logKa (association constant): 4.44 ± 0.01
  n (number of binding sites): 1.006 ± 0.015
[7]
  logK (binding constant): 4.62 ± 0.01
  logKSV (Stern-Volmer quenching constant): 4.45 ± 0.00
  logKa (association constant): 4.52 ± 0.10
  n (number of binding sites): 1.023 ± 0.034
Rat serum albumin (RSA)
  logK (binding constant): 4.91 ± 0.01
  logKSV (Stern-Volmer quenching constant): 4.82 ± 0.01
  logKa (association constant): 4.90 ± 0.11
  n (number of binding sites): 0.998 ± 0.051
[3]
  logK (binding constant): 4.65 ± 0.01
  logKSV (Stern-Volmer quenching constant): 4.44 ± 0.06
  logKa (association constant): 4.46 ± 0.08
  n (number of binding sites): 1.005 ± 0.029

## C[C@H]1CCCC(=O)CCC/C=C/c2cc(O)cc(O)c2C(=O)O1 [zearalenone]
[4]; [9]
  ΔG (298.16 K) of complex formation with HSA: -6.946 kcal/mol
  ΔH of complex formation with HSA: -7.192 kcal/mol
  ΔS of complex formation with HSA: −3.50 JK^−1 mol^−1

## COc1cc2c(c3oc(=O)c4c(c13)CCOC4=O)[C@@H]1CCO[C@@H]1O2 [AFG2, aflatoxin G2]
[2]
  effect on fluorescence signal of HSA-bound warfarin at 379 nm (displacement of WAR from HSA): considerably decreased the fluorescence intensity of WAR at 379 nm
[3]
  logK (binding constant): 4.34 ± 0.01
  logKSV (Stern-Volmer quenching constant): 3.96 ± 0.04
  logKa (association constant): 4.04 ± 0.07
  n (number of binding sites): 1.017 ± 0.025

## COc1cc2c(c3oc(=O)c4c(c13)CCC4=O)[C@@]1(O)C=CO[C@H]1O2 [AFM1, aflatoxin M1]
[2]
  effect on fluorescence signal of HSA-bound warfarin at 379 nm (displacement of WAR from HSA): considerably decreased the fluorescence intensity of WAR at 379 nm
[3]
  logK (binding constant): 4.52 ± 0.01
  logKSV (Stern-Volmer quenching constant): 4.28 ± 0.01
  logKa (association constant): 4.26 ± 0.00
  n (number of binding sites): 1.004 ± 0.013
